Measured values as given in patent publication US20240373851A1, “PEST CONTROL COMPOSITION AND PEST CONTROL METHOD” (SUMITOMO CHEMICAL COMPANY, LIMITED, priority 2021, published 2024).

Experiments:
Format in all cases: in vivo
[1] = test system: German cockroaches (Blattella germanica); test: Test Example 5: control test against German cockroaches, spray in chamber; settings: adult German cockroaches; 1.5 mL sprayed; concentration [%]: nicofluprole 0.01, imiprothrin 0.01, cyfluthrin 0.0002, alone or mixed; 45 minutes after spraying
Excerpt: (§1) Next, the usefulness of the inventive composition for controlling pests will be indicated by Test Examples.
(§2) (hereinafter referred to as expected value A)
(§3) (hereinafter referred to as expected value B)
(§4) In a plastic cup (diameter: 12.4 cm, height: 10.2 cm) lined with a filter paper, ten adult German cockroaches (Blattella germanica) (five males and five females each) or eleven adult German cockroaches were released, and the plastic cup was placed in the center of the bottom of a box-shaped chamber (46 cm×46 cm×70 cm in height). From the height of 60 cm, 1.5 mL of each of formulations prepared by dissolving a single agent of any one of nicofluprole, imiprothrin and cyfluthrin, or a mixed agent of two or more thereof in a mixture of isopropyl alcohol and Isopar M at a mixing ratio of 1:9 was sprayed under a spray pressure of 0.041 MPa. After a lapse of 45 minutes from spraying, the number of dead and moribund individuals was examined, and moribund and mortal rates (%) were determined by the above equation 3. The test was performed through two replicates. Dead individuals are completely immobile individuals, and moribund individuals are individuals who cannot get up when turned on their backs.

[2] = test system: German cockroaches (Blattella germanica); test: Test Example 4: control test against German cockroaches, spray in chamber; settings: adult German cockroaches; 1.5 mL sprayed; concentration [%]: nicofluprole 0.01, imiprothrin 0.01, deltamethrin 0.0002, alone or mixed; 45 minutes after spraying
Method: (§5) Next, the usefulness of the inventive composition for controlling pests will be indicated by Test Examples. In general, the control effect to be expected when treated with a mixture obtained by mixing given two or three types of active ingredient compounds is determined by the Colby's calculation equation represented by the following [Equation 1] and [Equation 2].
(§6) [formula] • P: moribund and mortal rates (%) when treated with an active ingredient compound X in the concentration of m [ppm] • Q: moribund and mortal rates (%) when treated with an active ingredient compound Y in the concentration of n [ppm] • EA: moribund and mortal rates (%) when treated with an active ingredient compound X in the concentration of m [ppm] and an active ingredient compound Y in the concentration of n [ppm] (hereinafter referred to as expected value A) […]
(§7) Regarding the synergistic effect of three types of the active ingredient compounds, in case where the moribund and mortal rates (%) when actually treated with a mixture obtained by mixing three types of the active ingredient compounds exceed the expected value A calculated by using the moribund and mortal rates (%) when actually treated with a mixture obtained by mixing two types of the active ingredient compounds among three types thereof, and the moribund and mortal rates (%) calculated when actually treated the remaining one type of the active ingredient compound, or the expected value B (%) calculated from the moribund and mortal rates (%) when actually treated with each of three types of the active ingredient compounds alone, it was determined that the synergistic effect exists. […]

[3] = test system: German cockroaches (Blattella germanica); test: Test Example 8: control test against German cockroaches, spray in chamber; settings: adult German cockroaches; 1.5 mL sprayed; concentration [%]: nicofluprole 0.01, imiprothrin 0.01, phenothrin 0.1, alone or mixed; 45 minutes after spraying
Method: as §5, §6, §7

[4] = test system: German cockroaches (Blattella germanica); test: Test Example 3: control test against German cockroaches, spray in chamber; settings: adult German cockroaches; 1.5 mL sprayed; concentration [%]: broflanilide 0.02, imiprothrin 0.01, cyfluthrin 0.0016, alone or mixed; 420 minutes after spraying
Excerpt: as §1, §2, §3
as §4, with “each)” for “each) or eleven adult German cockroaches”, “broflanilide,” for “nicofluprole,”, “420” for “45”

C#CCN1CC(=O)N(COC(=O)[C@@H]2C(C=C(C)C)C2(C)C)C1=O (mixture of isomers) [Imiprothrin, imiprothrin]
Moribund and mortal rates [%] after 45 minutes [1]: 65% | Moribund and mortal rates [%] after 45 minutes [2]: 65% | Moribund and mortal rates [%] after 45 minutes [3]: 65% | Moribund and mortal rates [%] after 420 minutes [4]: 15%
